Each structure is given as a SMILES string. Some results are limits rather than exact numbers.

T1 sequence (Q01718 whole entry): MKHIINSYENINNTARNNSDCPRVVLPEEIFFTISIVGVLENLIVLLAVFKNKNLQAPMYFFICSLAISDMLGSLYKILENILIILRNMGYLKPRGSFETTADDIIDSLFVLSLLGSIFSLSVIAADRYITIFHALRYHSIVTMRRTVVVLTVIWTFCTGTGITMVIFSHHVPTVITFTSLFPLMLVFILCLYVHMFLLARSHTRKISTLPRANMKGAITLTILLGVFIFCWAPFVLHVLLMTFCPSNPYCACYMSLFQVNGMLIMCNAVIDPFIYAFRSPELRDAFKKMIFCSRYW
T1 sequence (Q8TCY5 whole entry partner): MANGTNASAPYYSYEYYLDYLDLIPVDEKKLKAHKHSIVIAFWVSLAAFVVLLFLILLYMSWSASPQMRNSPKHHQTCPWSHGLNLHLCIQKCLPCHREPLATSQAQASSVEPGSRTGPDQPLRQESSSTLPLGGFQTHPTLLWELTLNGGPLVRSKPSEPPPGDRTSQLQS

This assay has as its target T1, hMC2 receptor (crude hMC2R membranes from CRE-bla-CHO-K1 cells stably expressing hMC2 receptor and hMRAP accessory protein) (Homo sapiens, UniProt Q01718).
T1 construct: crude membrane fractions
Kind of assay: hMC2 membrane binding assay ([125I]ACTH (1-39) Tyr23, SPA). The note with it: displacement of 0.2 nM [125I]ACTH (1-39) Tyr23 from hMC2R membranes, 1.5 hours at room temperature; read-out: MC2R binding potency. In outline:
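Ki values come from non-linear regression of SPA scintillation counts, with compounds displacing [125I]ACTH(1-39) Tyr23. Membranes come from CRE-bla-CHO-K1 cells stably expressing hMC2 receptor together with hMRAP. They are preincubated with WGA-coated PVT SPA beads in 50 mM HEPES pH 7.4 with 0.20% BSA, Mg2+, Ca2+ and protease inhibitors.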
Consider `CNC[C@H](C)NC(=O)C1(c2ccc(-c3cccn3C)nc2)CCN(c2ccc(C(F)(F)F)cc2F)CC1` [Compound 1-298, 1-[2-fluoro-4-(trifluoromethyl)phenyl]-4-[6-(1-methyl-1H-pyrrol-2-yl)pyridin-3-yl]-N-[(2S)-1-(methylamino)propan-2-yl]piperidine-4-carboxamide], for which the Ki was under 10 nM.
The result for `CCOc1ncccc1-c1ccc(C2(C(=O)N[C@H]3CCN(C)C3)CCN(c3ccc(C(F)(F)F)cc3F)CC2)nn1` [Compound 1-193, 4-[6-(2-ethoxypyridin-3-yl)pyridazin-3-yl]-1-[2-fluoro-4-(trifluoromethyl)phenyl]-N-[(3S)-1-methylpyrrolidin-3-yl]piperidine-4-carboxamide] reads under 10 nM; that for `CN1CC[C@@H](NC(=O)C2(c3ccc(-c4cc(F)cc(F)c4)nc3)CCN(c3ccc(C(F)(F)F)cc3C#N)CC2)C1` [Compound 1-65, 1-[2-cyano-4-(trifluoromethyl)phenyl]-4-[6-(3,5-difluorophenyl)pyridin-3-yl]-N-[(3R)-1-methylpyrrolidin-3-yl]piperidine-4-carboxamide], 10 to 100 nM; that for `CNCCNC(=O)C1(c2ccc(-c3cccn3C)nc2)CCN(c2ccc(C(F)(F)F)cc2C#N)CC1` [Compound 1-215, 1-[2-cyano-4-(trifluoromethyl)phenyl]-4-[6-(1-methyl-1H-pyrrol-2-yl)pyridin-3-yl]-N-[2-(methylamino)ethyl]piperidine-4-carboxamide], under 10 nM.
As for `CCOc1ncccc1-c1ncc(C2(C(=O)N[C@H]3CCN(C)C3)CCN(c3ccc(C(F)(F)F)cc3F)CC2)cc1F` [Compound 1-201, (S)-4-(2′-ethoxy-3-fluoro-[2,3′-bipyridin]-5-yl)-1-(2-fluoro-4-(trifluoromethyl)phenyl)-N-(1-methylpyrrolidin-3-yl)piperidine-4-carboxamide], the figure is under 10 nM; as for `C[C@H](CN(C)C)NC(=O)C1(c2ccc(-c3cccn3C)nc2)CCN(c2ccc(C(F)(F)F)cc2C#N)CC1` [Compound 1-260, 1-[2-cyano-4-(trifluoromethyl)phenyl]-N-[(2R)-1-(dimethylamino)propan-2-yl]-4-[6-(1-methyl-1H-pyrrol-2-yl)pyridin-3-yl]piperidine-4-carboxamide], under 10 nM; as for `CN(C)C1(CNC(=O)C2(c3ccc(-c4cccn4C)nc3)CCN(c3ccc(C(F)(F)F)cc3C#N)CC2)CC1` [Compound 1-263, 1-[2-cyano-4-(trifluoromethyl)phenyl]-N-{[1-(dimethylamino)cyclopropyl]methyl}-4-[6-(1-methyl-1H-pyrrol-2-yl)pyridin-3-yl]piperidine-4-carboxamide], 10 to 100 nM.
As for `CCOc1ccccc1-c1ccc(C2(C(=O)N[C@H]3CCN(C)C3)CCN(c3ccc(C(F)(F)F)cc3C#N)CC2)cn1` [Compound 1-30, 1-[2-cyano-4-(trifluoromethyl)phenyl]-4-[6-(2-ethoxyphenyl)pyridin-3-yl]-N-[(3S)-1-methylpyrrolidin-3-yl]piperidine-4-carboxamide], the figure is under 10 nM; as for `CCOc1ncccc1-c1ccc(C2(NCCNC)CCN(c3ccc(C(F)(F)F)cc3C#N)CC2)cn1` [Compound 2-15, 2-(4-{2′-ethoxy-[2,3′-bipyridin]-5-yl}-4-{[2-(methylamino)ethyl]amino}piperidin-1-yl)-5-(trifluoromethyl)benzonitrile], 10 to 100 nM; as for `Cc1occc1-c1ccc(C2(C(=O)N[C@@H]3CCN(C)C3)CCN(c3ccc(C(F)(F)F)cc3C#N)CC2)cn1` [Compound 1-116, 1-[2-cyano-4-(trifluoromethyl)phenyl]-4-[6-(2-methylfuran-3-yl)pyridin-3-yl]-N-[(3R)-1-methylpyrrolidin-3-yl]piperidine-4-carboxamide], under 10 nM.
For `CN1CC[C@H](NC(=O)C2(c3cnc(-c4cccn4C)c(F)c3)CCN(c3ccc(C(F)(F)F)cc3F)CC2)C1` [Compound 1-192, 1-[2-fluoro-4-(trifluoromethyl)phenyl]-4-[5-fluoro-6-(1-methyl-1H-pyrrol-2-yl)pyridin-3-yl]-N-[(3S)-1-methylpyrrolidin-3-yl]piperidine-4-carboxamide], the Ki is under 10 nM.
As to `CCOc1ccccc1-c1ccc(C2(C(=O)N[C@H]3CCN(C)C3)CCN(c3ccc(Cl)cc3C#N)CC2)nn1` [Compound 1-134, 1-(4-chloro-2-cyanophenyl)-4-[6-(2-ethoxyphenyl)pyridazin-3-yl]-N-[(3S)-1-methylpyrrolidin-3-yl]piperidine-4-carboxamide], the Ki is under 10 nM.
The result for `COc1c(F)cc(F)cc1-c1ccc(C2(C(=O)N[C@@H]3CCN(C)C3)CCN(c3ccc(C(F)(F)F)cc3C#N)CC2)cn1` [Compound 1-87, 1-[2-cyano-4-(trifluoromethyl)phenyl]-4-[6-(3,5-difluoro-2-methoxyphenyl)pyridin-3-yl]-N-[(3R)-1-methylpyrrolidin-3-yl]piperidine-4-carboxamide] reads under 10 nM; that for `CCn1cccc1-c1ccc(C2(C(=O)N[C@H]3CCN(C)C3)CCN(c3ccc(C(F)(F)F)cc3C#N)CC2)cn1` [Compound 1-208, 1-[2-cyano-4-(trifluoromethyl)phenyl]-4-[6-(1-ethyl-1H-pyrrol-2-yl)pyridine-3-yl]-N-[(3S)-1-methylpyrrolidin-3-yl]piperidine-4-carboxamide], under 10 nM.
The result for `COc1ccccc1-c1ccc(C2(C(=O)NC[C@H]3CCN3)CCN(c3ccc(C(F)(F)F)cc3C#N)CC2)cn1` [Compound 1-236, N-{[(2R)-azetidin-2-yl]methyl}-1-[2-cyano-4-(trifluoromethyl)phenyl]-4-[6-(2-methoxyphenyl)pyridin-3-yl]piperidine-4-carboxamide] reads under 10 nM; that for `COc1ccc(F)cc1-c1ccc(C2(C(=O)N[C@H]3CCN(C)C3)CCN(c3ccc(C(F)(F)F)cc3Cl)CC2)cn1` [Compound 1-155, 1-[2-chloro-4-(trifluoromethyl)phenyl]-4-[6-(5-fluoro-2-methoxyphenyl)pyridin-3-yl]-N-[(3S)-1-methylpyrrolidin-3-yl]piperidine-4-carboxamide], under 10 nM; that for `Cn1cccc1-c1ccc(C2(C(=O)NCCCN)CCN(c3ccc(C(F)(F)F)cc3C#N)CC2)cn1` [Compound 1-205, N-(3-aminopropyl)-1-[2-cyano-4-(trifluoromethyl)phenyl]-4-[6-(1-methyl-1H-pyrrol-2-yl)pyridin-3-yl]piperidine-4-carboxamide], 10 to 100 nM.
The result for `CCOc1ncccc1-c1ccc(C2(C(=O)N[C@@H](C)CNC)CCN(c3ccc(C(F)(F)F)cc3C#N)CC2)cn1` [Compound 1-314, 1-[2-cyano-4-(trifluoromethyl)phenyl]-4-{2′-ethoxy-[2,3′-bipyridin]-5-yl}-N-[(2S)-1-(methylamino)propan-2-yl]piperidine-4-carboxamide] reads under 10 nM; that for `C[C@@H](CN(C)C)NC(=O)C1(c2ccc(-c3cccn3C)nc2)CCN(c2ccc(C(F)(F)F)cc2F)CC1` [Compound 1-297, N-[(2S)-1-(dimethylamino)propan-2-yl]-1-[2-fluoro-4-(trifluoromethyl)phenyl]-4-[6-(1-methyl-1H-pyrrol-2-yl)pyridin-3-yl]piperidine-4-carboxamide], under 10 nM.
